# Reference: paper PMC9925730, “Controlled sequential in situ self-assembly and disassembly of a fluorogenic cisplatin prodrug for cancer theranostics” (Nature Communications, 2023)
# “And” between values parts separate entries of the source, which are not always exact repeats. Identical values can stand only once.
# How the values were obtained:
# ALP = target: T1, ALP (Bos taurus, UniProt P19111); assay: ALP-triggered dephosphorylation and in situ self-assembly in solution (HPLC, DLS, TEM); type: biochemical; parameters: amount of compound in the P-CyPt solution (HPLC, Fig. 2h) / mean size by TEM (Fig. 2i) / mean size by DLS (Fig. 2i): unit not given here; conditions: for amount of compound in the P-CyPt solution (HPLC, Fig. 2h) / Pt release (ICP-OES, Fig. 2h) / mean size by DLS (Fig. 2i) / mean size by TEM (Fig. 2i): P-CyPt 10 μM, ALP 100 U/L 37 °C
# T1 construct: Alkaline phosphatase from bovine; purchased Sigma-Aldrich; host or cells: bovine intestinal mucosa (tissue-derived)
# T1 sequence (P19111 20-506 limits assumed): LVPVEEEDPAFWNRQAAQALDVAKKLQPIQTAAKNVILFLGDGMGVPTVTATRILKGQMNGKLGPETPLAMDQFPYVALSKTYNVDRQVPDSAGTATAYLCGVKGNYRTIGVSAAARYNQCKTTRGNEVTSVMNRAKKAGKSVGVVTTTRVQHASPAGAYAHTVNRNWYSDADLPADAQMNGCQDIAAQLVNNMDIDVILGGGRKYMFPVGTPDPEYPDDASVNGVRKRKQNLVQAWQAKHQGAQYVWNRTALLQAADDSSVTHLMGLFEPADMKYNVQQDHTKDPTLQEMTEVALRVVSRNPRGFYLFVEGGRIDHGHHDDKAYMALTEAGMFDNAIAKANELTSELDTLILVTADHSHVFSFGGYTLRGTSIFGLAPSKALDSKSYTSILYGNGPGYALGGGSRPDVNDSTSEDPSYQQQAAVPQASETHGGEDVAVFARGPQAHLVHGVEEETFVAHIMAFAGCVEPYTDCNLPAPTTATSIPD
# Experimental: To evaluate the ALP-triggered dephosphorylation and in situ self-assembly process, a solution of P-CyPt (10 μM) in Tris buffer (1 mL) was incubated with ALP (100 U/L) at 37 °C. HPLC, DLS, and TEM analyses were performed at 0, 5, 10, 15, 20, and 30 min. To evaluate the GSH-triggered reduction and disassembly process, P-CyPt (10 μM) in Tris buffer (1 mL) was first incubated with ALP (100 U/L) at 37 °C for 30 min to allow the formation of Pt^IVNPs. The solution was then treated with 10 mM GSH at 37 °C, which was monitored by HPLC, DLS, and TEM at 10, 20, 30, 40, 50, and 60 min.
# [1] = Blood analysis in healthy mice (blood count, biochemistry); type: in vivo; parameters: BUN / CRE / WBC / HGB / HCT / MCH / MCHC / MCV / RBC / ALT / AST / TP / T-Bil / Alb: unit not given here; conditions: for ALT / AST / Alb / BUN / CRE / HCT / MCH / MCHC / MCV / PLT / RBC / T-Bil / TP / WBC: Supplementary Fig. 36
# [2] = tested on: supercoiled pBR322 plasmid DNA; assay: Ability to break DNA double strand (agarose gel electrophoresis); type: biochemical; conditions: 100 μM, 37 °C, 16 h
# Experimental: Evaluation of the ability to break DNA double strand
# by different species of Pt compounds. (a) Agarose gel electrophoresis of supercoiled
# pBR322 plasmid DNA (10 ng/μL) after incubating with indicated conditions.
# represents the linear DNA marker ladder (500-12000 bp); Lane i: DNA; Lane ii: DNA
# + GSH (2 mM); Lane iii: DNA + CDDP (100 μM); Lane iv: DNA + CDDP (100 μM)
# + GSH (2 mM); Lane v: DNA + P-CyPt (100 μM); Lane vi: DNA + P-CyPt (100 μM)
# + GSH (2 mM), Lane vii: DNA +P-CyPt (100 μM) + ALP (500 U/L), Lane viii: DNA
# +P-CyPt (100 μM) + ALP (500 U/L) +GSH (2 mM); (b) Agarose gel electrophoresis
# of supercoiled pBR322 plasmid DNA (20 ng/μL) after incubating with varying
# concentrations of P-CyPt (0, 1, 2, 5, 10, 20, 50 and 100 μM) respectively) plus ALP
# (500 U/L), followed by incubation with GSH (2 mM) in Tris buffer at 37 °C for 16 h.
# [3] = Blood circulation half-life (ICP-OES of Pt); type: in vivo, mice
# Excerpt: Scale bar: 100 μm. The occurrence of hepatotoxicity in […]-treated mice could be presumably owing to (1) the large size of […] (~160 nm) that caused a high liver uptake and (2) the fast release of cytotoxic cisplatin from the liver-resided […] by hepatic GSH that led to a high concentration of cisplatin in the liver. One representative experiment out of two is shown. 30 PBS CDDP Pt IV NP sP- Cy Pt 20 10 0 013 619 25 Days Supplementary Figure 34. Monitoring of the body weight of mice with orthotopic HepG2/Luc liver tumors following indicated treatments. […] Values denote mean ± s.d. (n = 4 independent animals). 120 CDDP Pt IV NP s […] 40 0 0 25510 2015 Time (h) Supplementary Figure 35. Examination of the blood circulation half-lives of […], and CDDP. Plots of the relative amount of Pt (%) in the blood after i.v. injection of […], and CDDP (at a dose of 2.25 mg kg-1 Pt) into healthy mice. Data are mean ± s.d. (n = 3 independent animals). […] 0.23 h). […] The residues were then diluted with 5 mL 2% HNO3 and 5% HCl solution, and the concentrations of Pt element were determined by ICP-OES, which were further applied to calculate the contents of Pt element in the blood. The plot of the percentage of Pt element remained in the blood versus injection time to yield the pharmacokinetic time. Urine and Faeces analysis. […] Urine and faeces were collected at 2 (for 0-2 h), 4 (for 2-4 h), 8 (for 4- 8 h) and 12 h (for […]), which were diluted in methanol and centrifuged at 3,600 × g for 10 min, followed by filtering via a 0.22 μm syringe filter. The solutions were analyzed by HPLC (660 nm detection) to characterize all the mCy-containing compounds. Using the established standard curves for […] Cy-COOH, the amount of each compound in the urine and faeces could be calculated, which were further applied to determine the percentage of them in the urine and faeces. The data were summarized in Supplementary Tables 5-8. […] Urine and faeces were collected and weighed. The urine and faeces were digested with concentrated HNO3 (65~70%) and HCl (36~38%) at 90 °C for 24 h. The solution was diluted to 5 mL 2% HNO3 and 5% HCl solution, and the concentration of Pt element was measured by ICP-OES, which was further applied to calculate the percentage of Pt in corresponding urine and faeces. The data were summarized in Supplementary Tables 9 and 10. 47
# HeLa cells = assay: Flow cytometry analysis of HeLa cell death (Annexin V-FITC/PI); type: cell-based, human; conditions: 20 μM 2 h, then blank medium 48 h
# Experimental: Flow cytometric analysis of HeLa cell death. (a) Gating strategy applied for flow cytometric analysis. (b) Representative flow cytometric analysis of HeLa cells by Annexin V-FITC/PI staining. HeLa cells were treated with PBS, CDDP, PtIVNPs or P-CyPt (20 μM) for 2 h, washed with cold PBS for three times, and then continued incubation in refresh blank DMEM medium for another 48 h. The cells were then stained with the Annexin V-FITC/PI kit, and analyzed by flow cytometry. One representative experiment out of two is shown.
# Flow cytometry analysis of HeLa cell death. Approximately 2×10^5 cells/well HeLa cells in 2 mL DMEM medium were seeded onto 6-well plates and allowed to grow overnight. The medium was replaced with 1 mL of fresh medium containing P-CyPt (20 μM), PtIVNPs (20 μM) and CDDP (20 μM), respectively. After 2 h incubation, medium was removed and cells were washed with PBS for three times. Then, cells were incubated with fresh medium for another 48 h to induce different levels of apoptosis.
# After gentle washing with PBS (×1), the cells were detached from the plates with trypsin (500 μL per well), and the cell pellets were collected after centrifugation at 1000 161× g at 4 °C for 4 min. […] All assays were performed according to the manufacturer instructions, and the cell population was analyzed by annexin V-FITC and PI channels. […]
smiles,measurement,setting,value
CC1(C)C(/C=C/C2=C3Oc4cc(O)c(Cl)cc4C=C3CCC2)=[N+](CCCNC(=O)[C@@H](Cc2ccccc2)NC(=O)[C@@H](Cc2ccccc2)NC(=O)CCC(=O)[O][Pt]([NH2])([NH2])([OH])([Cl])[Cl])c2ccccc21 [CyPt],"amount of compound in the P-CyPt solution (HPLC, Fig. 2h)",ALP; 0 min,0.00
same,"amount of compound in the P-CyPt solution (HPLC, Fig. 2h)",ALP; 5 min,28.25
same,"amount of compound in the P-CyPt solution (HPLC, Fig. 2h)",ALP; 10 min,54.36
same,"amount of compound in the P-CyPt solution (HPLC, Fig. 2h)",ALP; 15 min,71.75
same,"amount of compound in the P-CyPt solution (HPLC, Fig. 2h)",ALP; 20 min,94.94
same,"amount of compound in the P-CyPt solution (HPLC, Fig. 2h)",ALP; 30 min,100.00
CC1(C)C(/C=C/C2=C3Oc4cc(OP(=O)(O)O)c(Cl)cc4C=C3CCC2)=[N+](CCCNC(=O)[C@@H](Cc2ccccc2)NC(=O)[C@@H](Cc2ccccc2)NC(=O)CCC(=O)[O][Pt]([NH2])([NH2])([OH])([Cl])[Cl])c2ccccc21 [P-CyPt],HGB,"[1]; Supplementary Fig. 36, first HGB block, individual mice",124 and 128 and 97
same,HGB,"[1]; Supplementary Fig. 36, first HGB block, mean of 3 mice",116.333
same,HGB,"[1]; Supplementary Fig. 36, second HGB block (between AST and TP), mean of 3 mice",3.426
same,ALT,[1]; individual mice,64.638 and 69.471 and 57.14
same,AST,[1]; individual mice,93.668 and 95.637 and 124.668
same,Alb,[1]; individual mice,28.06 and 34.76 and 32.73
same,BUN,[1]; individual mice,22.456 and 18.592 and 16.632
same,CRE,[1]; individual mice,23.568 and 18.005 and 14.662
same,HCT,[1]; individual mice,42 and 36 and 35.3
same,MCH,[1]; individual mice,18.3 and 18.9 and 16.6
same,MCHC,[1]; individual mice,315 and 345 and 304
same,MCV,[1]; individual mice,50.3 and 49.6 and 53.5
same,PLT,[1]; individual mice,463 and 494 and 673
same,RBC,[1]; individual mice,7.22 and 7.49 and 6.74
same,T-Bil,[1]; individual mice,20.416 and 17.788 and 25.91
same,TP,[1]; individual mice,41.72 and 48.65 and 44.25
same,WBC,[1]; individual mice,2.3 and 2.6 and 1.5
same,ALT,[1]; mean of 3 mice,63.750
same,AST,[1]; mean of 3 mice,104.658
same,Alb,[1]; mean of 3 mice,31.850
same,BUN,[1]; mean of 3 mice,19.227
same,CRE,[1]; mean of 3 mice,18.745
same,HCT,[1]; mean of 3 mice,37.767
same,MCH,[1]; mean of 3 mice,17.933
same,MCHC,[1]; mean of 3 mice,321.333
same,MCV,[1]; mean of 3 mice,51.133
same,PLT,[1]; mean of 3 mice,543.333
same,RBC,[1]; mean of 3 mice,7.150
same,T-Bil,[1]; mean of 3 mice,21.371
same,TP,[1]; mean of 3 mice,44.873
same,WBC,[1]; mean of 3 mice,2.133
same,blood count and biochemistry values,"[1]; healthy nude mice, 1 day post i.v. 2.25 mg kg-1 Pt",all the values were within the normal reference
same,effect on supercoiled pBR322 DNA,[2]; plus GSH (2 mM),can significantly relax the supercoiled DNA
same,effect on supercoiled pBR322 DNA,[2]; without GSH,cannot bind to and break the DNA double strand
same,Relative Pt amount in blood,"[3]; Time 0 h, individual mice",89.0517 and 110.783 and 100.165
same,Relative Pt amount in blood,"[3]; Time 0 h, mean of 3 mice",100
same,Relative Pt amount in blood,"[3]; Time 0.5 h, individual mice",75.3589 and 72.0355 and 86.1448
same,Relative Pt amount in blood,"[3]; Time 0.5 h, mean of 3 mice",77.8464
same,Relative Pt amount in blood,"[3]; Time 1 h, individual mice",48.6558 and 63.4564 and 58.4934
same,Relative Pt amount in blood,"[3]; Time 1 h, mean of 3 mice",56.8685
same,Relative Pt amount in blood,"[3]; Time 2 h, individual mice",21.7134 and 35.2733 and 24.195
same,Relative Pt amount in blood,"[3]; Time 2 h, mean of 3 mice",27.0606
same,Relative Pt amount in blood,"[3]; Time 4 h, individual mice",12.3988 and 8.818 and 6.257
same,Relative Pt amount in blood,"[3]; Time 4 h, mean of 3 mice",9.158
same,Relative Pt amount in blood,"[3]; Time 8 h, individual mice",7.923 and 5.247 and 4.422
same,Relative Pt amount in blood,"[3]; Time 8 h, mean of 3 mice",5.864
same,Relative Pt amount in blood,"[3]; Time 12 h, individual mice",4.1743 and 2.189 and 3.164
same,Relative Pt amount in blood,"[3]; Time 12 h, mean of 3 mice",3.176
same,Relative Pt amount in blood,"[3]; Time 24 h, individual mice",1.657 and 1.56 and 1.79
same,Relative Pt amount in blood,"[3]; Time 24 h, mean of 3 mice",1.669
same,blood circulation half-life t1/2,"[3]; mice, i.v., 2.25 mg kg-1 Pt",32.4 ± 3.6 min
same,apoptosis population,HeLa cells,~ 64.5%
same,conversion of P-CyPt into CyPt on incubation with ALP (HPLC),"ALP; 100 U/L ALP, Tris buffer pH 8.0, after 30 min",completely converted into CyPt
same,"Pt release (ICP-OES, Fig. 2h)",ALP; 0 min,0%
same,"amount of compound in the P-CyPt solution (HPLC, Fig. 2h)",ALP; 0 min,100.00
same,mean size by DLS (Fig. 2i),ALP; 0 min,0.00
same,mean size by TEM (Fig. 2i),ALP; 0 min,0.00
same,"Pt release (ICP-OES, Fig. 2h)",ALP; 5 min,0%
same,"amount of compound in the P-CyPt solution (HPLC, Fig. 2h)",ALP; 5 min,72.64
same,mean size by DLS (Fig. 2i),ALP; 5 min,45.78
same,mean size by TEM (Fig. 2i),ALP; 5 min,54.14
same,"Pt release (ICP-OES, Fig. 2h)",ALP; 10 min,0%
same,"amount of compound in the P-CyPt solution (HPLC, Fig. 2h)",ALP; 10 min,46.65
same,mean size by DLS (Fig. 2i),ALP; 10 min,88.09
same,mean size by TEM (Fig. 2i),ALP; 10 min,87.54
same,"Pt release (ICP-OES, Fig. 2h)",ALP; 15 min,0%
same,"amount of compound in the P-CyPt solution (HPLC, Fig. 2h)",ALP; 15 min,28.27
same,mean size by DLS (Fig. 2i),ALP; 15 min,112.94
same,mean size by TEM (Fig. 2i),ALP; 15 min,105.56
same,"Pt release (ICP-OES, Fig. 2h)",ALP; 20 min,0%
same,"amount of compound in the P-CyPt solution (HPLC, Fig. 2h)",ALP; 20 min,6.15
same,mean size by DLS (Fig. 2i),ALP; 20 min,150.95
same,mean size by TEM (Fig. 2i),ALP; 20 min,121.94
same,"Pt release (ICP-OES, Fig. 2h)",ALP; 30 min,0%
same,"amount of compound in the P-CyPt solution (HPLC, Fig. 2h)",ALP; 30 min,1.54
same,mean size by DLS (Fig. 2i),ALP; 30 min,162.05
same,mean size by TEM (Fig. 2i),ALP; 30 min,152.65
